Assays:
[1] = test system: RET fusion-positive NSCLC; test: Tumor response by RECIST 1.1 (ORR, DCR, DOR, PFS), phase 1/2; type: in vivo, human; settings: for Best response: Complete response / Best response: Not evaluable / Best response: Partial response / Best response: Progressive disease / Best response: Stable disease: ERS, investigator-assessed RECIST 1.1; for PFS: patient with previous RET-TKI treatment
Experimental: Treatment-emergent adverse events (TEAEs) were documented during the entire study period. The predefined adverse event of special interest (AESI) was ≥ grade 3 prolonged QT interval. Tumor imaging was performed using contrast-enhanced computed tomography or magnetic resonance imaging at screening, Day 28 of the first cycle, then approximately every eight weeks till the end of the study for phase 1; in phase 2, imaging was scheduled at screening, and every eight weeks during the first 40 weeks, followed by every 12 weeks for the rest of the study period. RECIST 1.1 was used by the independent review committee or investigators for assessment of tumor response. After the original assessment, a repeated assessment was required around four weeks later to confirm a complete or partial response.
The primary endpoints of phase 1 were to investigate the MTD, dose-limiting toxicities, and the incidence and severity of TEAEs. Each TEAE was graded according to the Common Terminology Criteria for Adverse Events (CTCAE, version 5.0) and coded by Medical Dictionary for Regulatory Activities (MedDRA, version 21.0). The secondary endpoints included calculating PK parameters, assessing the ORR and DCR at the recommended dose by investigators as per RECIST 1.1. The exploratory endpoint was PFS.
The primary endpoint of phase 2 was the independent review committee evaluated ORR using RECIST 1.1. The secondary endpoints included investigators assessed ORR; DCR, PFS, and DOR by the independent review committee and investigators; overall survival and TEAEs. Each TEAE was graded according to CTCAE version 5.0 and coded by MedDRA (version 24.0). The phase 2 trial is ongoing; not all endpoints are reported in this paper.
The full analysis set consisted of all patients who had administered at least one dose of HA121-28 and was used to calculate the baseline characteristics, OS, and PFS results. The safety set included all patients who had administered at least one dose of the HA121-28 and had at least one safety-related observation. This population was used for analysis of TEAEs. The efficacy evaluable set consisted of patients who had administered at least one dose of HA121-28 and completed at least one efficacy assessment following study treatment. This population was used to calculate the ORR, DOR, and DCR. In addition, the ORRs for subgroup analyses, including age ( < 60, ≥60), ECOG PS (0 or 1), gender (male or female), prior treatment with TKIs (yes or no), brain or liver metastasis (yes or no), were also calculated. The plasma drug concentration-time profile was characterized using PK concentration set that included patients who had administered at least one dose of HA121-28 and had at least one measurable plasma concentration of HA121-28. The PK parameter set was used to calculate PK parameters, which consisted of patients who had administered at least one dose of HA121-28 with at least one valid PK parameter. ORR and DCR were described using the Clopper-Pearson method with two-sided 95% confidence intervals (CIs). PFS and DOR were assessed using the Kaplan-Meier method, including an estimate of the median, along with corresponding 95% CIs. Statistical analyses of clinical outcomes were conducted by SAS (version 9.4 or later) and R software 4.1.0 for genomic DNA from pre-treatment tumor tissue (http://cran.r-project.org).

Single-dose toxicity = type: in vivo, Beagle dogs; settings: single oral dose 500 and 1000 mg/kg
Experimental: mg/kg. The maximum tolerated dose (MTD) was 500 mg/kg. Gastrointestinal, hepatic, and immune system toxicity may have contributed to the rat deaths.
2.2. Dose expansion phase
[…] To investigate the efficacy of HA121- 28 tablets in patients with advanced solid tumors.
This study is a single- arm, open- label, dose-escalation, and dose-expansion phase 1 clinical studywith single and multiple dosing.

Metabolites in plasma = settings: rats
[2] = RET fusion-positive NSCLC, ≥450 mg q.d.

SMILES: COc1cc2c(Nc3ccc(Br)cc3F)ncnc2cc1OCCCCN(C)C.Cl.Cl [HA121-28, N-(4-bromo-2-fluorophenyl)-7-(4-(dimethylamino)butoxy)-6-methoxy quinazolin-4-amine dihydrochloride]
- tumor response ([1]; 73 patients with non-RET fusion tumors, phase 1 dose expansion): no response
- confirmed ORR (investigator-assessed) ([1]; 97 RET fusion-positive NSCLC patients, ≥450 mg q.d.): 26.8%
- Best response: Complete response ([1]; All (N=97)): 0 No. (%)
- Best response: Not evaluable ([1]; All (N=97)): 4 (4.1) No. (%)
- Best response: Partial response ([1]; All (N=97)): 26 (26.8) No. (%)
- Best response: Progressive disease ([1]; All (N=97)): 23 (23.7) No. (%)
- Best response: Stable disease ([1]; All (N=97)): 44 (45.4) No. (%)
- Best response: Complete response ([1]; CCDC6 (N=15)): 0 No. (%)
- Best response: Not evaluable ([1]; CCDC6 (N=15)): 1 (6.7) No. (%)
- Best response: Partial response ([1]; CCDC6 (N=15)): 7 (46.7) No. (%)
- Best response: Progressive disease ([1]; CCDC6 (N=15)): 1 (6.7) No. (%)
- Best response: Stable disease ([1]; CCDC6 (N=15)): 6 (40.0) No. (%)
- confirmed ORR ([1]; CCDC6-RET fusion patients): 46.7%
- median DOR ([1]; CCDC6-RET fusion patients): 14.0 months
- median PFS ([1]; CCDC6-RET fusion patients): 14.9 months
- Best response: Complete response ([1]; KIF5B (N=71)): 0 No. (%)
- Best response: Not evaluable ([1]; KIF5B (N=71)): 2 (2.8) No. (%)
- Best response: Partial response ([1]; KIF5B (N=71)): 18 (25.4) No. (%)
- Best response: Progressive disease ([1]; KIF5B (N=71)): 21 (29.6) No. (%)
- Best response: Stable disease ([1]; KIF5B (N=71)): 30 (42.3) No. (%)
- confirmed ORR ([1]; KIF5B-RET fusion patients): 25.4%
- median DOR ([1]; KIF5B-RET fusion patients): 7.7 months
- median PFS ([1]; KIF5B-RET fusion patients): 5.5 months
- Best response: Complete response ([1]; Other (N=11)): 0 No. (%)
- Best response: Not evaluable ([1]; Other (N=11)): 1 (9.1) No. (%)
- Best response: Partial response ([1]; Other (N=11)): 1 (9.1) No. (%)
- Best response: Progressive disease ([1]; Other (N=11)): 1 (9.1) No. (%)
- Best response: Stable disease ([1]; Other (N=11)): 8 (72.7) No. (%)
- patients with shrinkage in tumor size ([1]; RET fusion-positive NSCLC (66 of 97)): 68.0%
- DCR [1, 2]: 72.2%
- median PFS [1, 2]: 5.5 months
- patients with partial response ([1]; TP53 wild-type group (5 out of 15)): 33.3%
- patients with partial response ([1]; concurrent TP53 mutation (1 out of 11)): 9.1%
- PFS ([1]; SD, dosing 176 days): 5.52 months
- PFS ([1]; confirmed PR, dosing 167 days): 5.36 months
- patients with partial response ([1]; phase 1, advanced RET fusion NSCLC with at least one efficacy evaluation, as of April 28, 2021): 7 of 17
- ORR ([1]; subgroup ECOG PS of 0): 35.5%
- ORR ([1]; subgroup age < 60): 30.9%
- ORR ([1]; subgroup with liver metastasis): 37.5%
- MTD (Single-dose toxicity): 1000 mg/kg
- number of metabolites found in plasma (Metabolites in plasma): 7

— publication PMC11868595, “Safety, pharmacokinetics and efficacy of HA121-28 in patients with advanced solid tumors and RET fusion-positive non-small-cell lung cancer: a multicenter, open-label, single-arm phase 1/2 trial” (Signal Transduction and Targeted Therapy, 2025)
